Read-outs that look alike come from different tables or passages of the source.
Tests used:
Type in all cases: biochemical
[1] = biological target: T1, human TOR (Homo sapiens, UniProt P42345); experiment: mTOR enzyme assay (DELFIA, His6-S6K substrate); conditions: read-out: mTOR Kinase Avg. IC50
T1 construct: FLAG

[2] = biological target: PI3K-alpha (Homo sapiens, UniProt P42336); experiment: PI3K-alpha fluorescence polarization assay; conditions: read-out: PI3Kα Avg. IC50
[3] = biological target: PI3K-gamma (Homo sapiens, UniProt P48736); experiment: PI3K-gamma fluorescence polarization assay
Summary of the method: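 Inhibition is derived from a polarization signal: after a 1 h, 25° C kinase step (25 μM ATP, 2.5 μM diC8-PIP2, pH 7), EDTA stops the reaction and the GRP1 PH domain/TMR-IP4 pair reports lipid product.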

Sequence of PI3K-gamma (P48736 whole entry, species assumed, the tested form may be a part): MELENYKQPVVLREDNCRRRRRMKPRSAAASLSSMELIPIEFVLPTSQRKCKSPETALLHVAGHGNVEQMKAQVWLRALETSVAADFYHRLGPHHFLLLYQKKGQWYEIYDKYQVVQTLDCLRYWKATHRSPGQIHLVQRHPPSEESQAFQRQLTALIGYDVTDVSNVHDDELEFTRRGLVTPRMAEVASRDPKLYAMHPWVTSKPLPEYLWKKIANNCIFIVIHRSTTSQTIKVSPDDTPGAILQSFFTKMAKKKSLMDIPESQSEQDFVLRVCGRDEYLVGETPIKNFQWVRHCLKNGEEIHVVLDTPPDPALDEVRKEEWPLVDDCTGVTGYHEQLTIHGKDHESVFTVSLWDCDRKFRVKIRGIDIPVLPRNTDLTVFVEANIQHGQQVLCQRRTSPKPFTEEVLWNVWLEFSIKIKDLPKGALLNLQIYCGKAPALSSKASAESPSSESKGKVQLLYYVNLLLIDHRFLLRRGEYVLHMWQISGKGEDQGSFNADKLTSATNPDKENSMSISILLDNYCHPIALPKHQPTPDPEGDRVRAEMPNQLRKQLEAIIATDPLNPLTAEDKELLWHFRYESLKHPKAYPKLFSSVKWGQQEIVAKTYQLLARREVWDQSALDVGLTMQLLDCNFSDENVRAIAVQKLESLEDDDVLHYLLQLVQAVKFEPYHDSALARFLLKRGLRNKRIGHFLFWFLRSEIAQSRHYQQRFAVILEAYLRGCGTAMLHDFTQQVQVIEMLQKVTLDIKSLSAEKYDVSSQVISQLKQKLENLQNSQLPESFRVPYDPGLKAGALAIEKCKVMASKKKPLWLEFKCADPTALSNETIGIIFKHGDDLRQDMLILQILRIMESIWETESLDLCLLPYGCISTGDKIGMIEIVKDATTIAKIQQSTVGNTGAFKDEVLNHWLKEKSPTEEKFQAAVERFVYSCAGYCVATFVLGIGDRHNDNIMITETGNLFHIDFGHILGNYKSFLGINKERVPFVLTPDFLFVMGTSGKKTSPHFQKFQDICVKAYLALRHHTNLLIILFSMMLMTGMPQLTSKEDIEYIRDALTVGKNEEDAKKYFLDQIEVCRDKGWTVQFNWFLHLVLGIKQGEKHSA
Sequence of PI3K-alpha (P42336 whole entry, species assumed): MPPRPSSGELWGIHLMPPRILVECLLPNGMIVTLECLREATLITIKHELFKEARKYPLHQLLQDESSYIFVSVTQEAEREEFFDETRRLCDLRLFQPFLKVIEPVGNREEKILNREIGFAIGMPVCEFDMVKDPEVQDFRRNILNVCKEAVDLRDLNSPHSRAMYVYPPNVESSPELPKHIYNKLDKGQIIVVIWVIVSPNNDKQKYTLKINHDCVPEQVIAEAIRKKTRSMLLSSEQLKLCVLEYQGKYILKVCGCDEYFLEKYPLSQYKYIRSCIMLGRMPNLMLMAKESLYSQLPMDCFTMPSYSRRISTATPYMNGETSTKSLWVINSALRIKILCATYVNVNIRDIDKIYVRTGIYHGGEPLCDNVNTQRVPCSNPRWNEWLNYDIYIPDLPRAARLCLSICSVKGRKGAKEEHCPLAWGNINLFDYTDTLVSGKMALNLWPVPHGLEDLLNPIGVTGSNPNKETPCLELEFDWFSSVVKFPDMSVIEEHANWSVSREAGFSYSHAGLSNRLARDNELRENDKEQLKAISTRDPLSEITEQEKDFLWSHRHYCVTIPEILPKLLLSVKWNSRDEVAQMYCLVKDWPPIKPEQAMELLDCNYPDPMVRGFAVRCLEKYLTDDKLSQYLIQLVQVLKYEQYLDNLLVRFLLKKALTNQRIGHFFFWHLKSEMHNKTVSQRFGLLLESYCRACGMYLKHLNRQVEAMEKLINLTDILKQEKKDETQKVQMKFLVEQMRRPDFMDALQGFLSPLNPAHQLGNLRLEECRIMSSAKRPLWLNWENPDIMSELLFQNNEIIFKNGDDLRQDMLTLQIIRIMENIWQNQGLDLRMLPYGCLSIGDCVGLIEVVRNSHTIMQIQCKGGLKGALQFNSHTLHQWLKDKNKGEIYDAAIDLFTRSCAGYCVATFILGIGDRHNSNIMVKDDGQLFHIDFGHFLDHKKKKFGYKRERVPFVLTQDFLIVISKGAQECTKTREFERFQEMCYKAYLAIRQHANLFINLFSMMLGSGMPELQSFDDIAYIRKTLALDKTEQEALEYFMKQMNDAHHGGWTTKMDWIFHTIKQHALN
Sequence of PI3K-alpha (P27986 whole entry partner, species assumed): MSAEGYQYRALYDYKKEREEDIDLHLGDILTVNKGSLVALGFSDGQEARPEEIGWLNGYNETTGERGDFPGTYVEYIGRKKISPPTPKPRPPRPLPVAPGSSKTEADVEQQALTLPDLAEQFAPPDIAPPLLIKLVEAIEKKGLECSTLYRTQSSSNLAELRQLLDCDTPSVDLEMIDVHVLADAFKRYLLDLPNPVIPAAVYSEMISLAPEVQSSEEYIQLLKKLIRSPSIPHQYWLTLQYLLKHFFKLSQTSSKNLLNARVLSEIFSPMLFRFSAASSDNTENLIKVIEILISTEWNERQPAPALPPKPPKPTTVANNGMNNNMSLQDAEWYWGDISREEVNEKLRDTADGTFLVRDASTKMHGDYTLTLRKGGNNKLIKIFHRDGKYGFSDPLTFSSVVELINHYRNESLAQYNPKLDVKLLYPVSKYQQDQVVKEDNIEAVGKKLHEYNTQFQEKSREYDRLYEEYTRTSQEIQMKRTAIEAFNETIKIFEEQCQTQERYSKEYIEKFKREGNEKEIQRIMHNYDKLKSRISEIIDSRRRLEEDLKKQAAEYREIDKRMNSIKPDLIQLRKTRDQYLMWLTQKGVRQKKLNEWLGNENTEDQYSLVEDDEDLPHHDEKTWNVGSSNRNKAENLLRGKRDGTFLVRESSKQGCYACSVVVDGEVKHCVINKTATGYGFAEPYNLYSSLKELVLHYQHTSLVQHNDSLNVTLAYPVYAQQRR

Structure (SMILES) | IC50 [1] | IC50 [2] | IC50 ([3]; PI3Kγ Avg. IC50) | IC50 ([3]; read-out: PI3Kγ Avg. IC50)
CNC(=O)Nc1ccc2c(c1)C(=O)/C(=C/c1c(-c3nc(C4CC4)no3)n(CCN3CCN(C)CC3)c3ccc(OC)cc13)O2 [Compound 626, 1-[(2Z)-2-({2-(3-cyclopropyl-1,2,4-oxadiazol-5-yl)-5-methoxy-1-[2-(4-methylpiperazin-1-yl)ethyl]-1H-indol-3-yl}methylidene)-3-oxo-2,3-dihydro-1-benzofuran-5-yl]-3-methylurea] | 66 nM | 3 nM | 470 nM | –
CNC(=O)Nc1ccc2c(c1)C(=O)/C(=C/c1c(C#N)n(CCN3CCN(C)CC3)c3ccc(OC)cc13)O2 [Compound 628, 1-[(2Z)-2-({2-cyano-5-methoxy-1-[2-(4-methylpiperazin-1-yl)ethyl]-1H-indol-3-yl}methylidene)-3-oxo-2,3-dihydro-1-benzofuran-5-yl]-3-methylurea] | 150 nM | 11 nM | 2730 nM | –
CNC(=O)Nc1ccc2c(c1)C(=O)/C(=C/c1c(-c3cccc(CN(C)C)c3)[nH]c3ccc(OC)cc13)O2 [Compound 629, 1-{(2Z)-2-[(2-{3-[(dimethylamino)methyl]phenyl}-5-methoxy-1H-indol-3-yl)methylidene]-3-oxo-2,3-dihydro-1-benzofuran-5-yl}-3-methylurea] | 50 nM | 1.3 nM | 25.5 nM | –
CNC(=O)Nc1ccc2c(c1)C(=O)/C(=C/c1c(-c3ccc(CN(C)C)cc3)n(CCN3CCN(C)CC3)c3ccc(OC)cc13)O2 [Compound 630, 1-{(2Z)-2-[(2-{4-[(dimethylamino)methyl]phenyl}-5-methoxy-1-[2-(4-methylpiperazin-1-yl)ethyl]-1H-indol-3-yl)methylidene]-3-oxo-2,3-dihydro-1-benzofuran-5-yl}-3-methylurea] | 200 nM | 1.15 nM | 157 nM | –
CNC(=O)Nc1ccc2c(c1)C(=O)/C(=C/c1c(C(C)(C)C)[nH]c3ccc(OC)cc13)O2 [Compound 631, 1-{(2Z)-2-[(2-tert-butyl-5-methoxy-1H-indol-3-yl)methylidene]-3-oxo-2,3-dihydro-1-benzofuran-5-yl}-3-methylurea] | 2 nM | 5 nM | 54.5 nM | –
COc1ccc2c(c1)c(/C=C1\Oc3ccc(NC(=O)Nc4cccnc4)cc3C1=O)c(C)n2CCN1CCN(C)CC1 [Compound 632, 1-[(2Z)-2-({5-methoxy-2-methyl-1-[2-(4-methylpiperazin-1-yl)ethyl]-1H-indol-3-yl}methylidene)-3-oxo-2,3-dihydro-1-benzofuran-5-yl]-3-pyridin-3-ylurea] | 49 nM | 1.9 nM | – | 246 nM

The next lines start with the values.

IC50 [1] | IC50 [2] | IC50 ([3]; PI3Kγ Avg. IC50) | IC50 ([3]; read-out: PI3Kγ Avg. IC50) | Structure (SMILES)
225 nM | 3.87 nM | 1910 nM | – | COc1ccc2c(c1)c(/C=C1\Oc3ccc(NC(=O)Nc4ccc(N(C)C)cc4)cc3C1=O)c(C)n2CCN1CCN(C)CC1 [Compound 633, 1-[4-(dimethylamino)phenyl]-3-[(2Z)-2-({5-methoxy-2-methyl-1-[2-(4-methylpiperazin-1-yl)ethyl]-1H-indol-3-yl}methylidene)-3-oxo-2,3-dihydro-1-benzofuran-5-yl]urea]
19 nM | 2.1 nM | 16.5 nM | – | CNC(=O)Nc1ccc2c(c1)C(=O)/C(=C/c1c(-c3c(C)nn(C)c3C)n(CCCC#N)c3ccc(OC)cc13)O2 [Compound 634, 1-[(2Z)-2-{[1-(3-cyanopropyl)-5-methoxy-2-(1,3,5-trimethyl-1H-pyrazol-4-yl)-1H-indol-3-yl]methylene}-3-oxo-2,3-dihydro-1-benzofuran-5-yl]-3-methylurea]
5 nM | 0.5 nM | 2.5 nM | – | COc1ccc2[nH]c(-c3c(C)nn(C)c3C)c(/C=C3\Oc4ccc(NC(=O)Nc5cccnc5)cc4C3=O)c2c1 [Compound 635, 1-[(2Z)-2-{[5-methoxy-2-(1,3,5-trimethyl-1H-pyrazol-4-yl)-1H-indol-3-yl]methylene}-3-oxo-2,3-dihydro-1-benzofuran-5-yl]-3-pyridin-3-ylurea]
